ChEMBL document CHEMBL1201862, “PubChem BioAssay data set” (2004)
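Where inhibition never reached the appropriate level, the endpoint shown equals the highest concentration tested. Otherwise, values were interpolated linearly from a five-concentration, 48-hour dose response in 96-well plates. GI50 marks 50% less growth.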 Calls of active or inactive are those of the source. Cut-off read from the data, not from the text of the source: active = GI50 up to about 1.1 µM and inactive = higher.

Columns and labels:
Experiment in all cases: growth of human tumour cells (NCI), 48 h
NCI/ADR-RES = system: NCI/ADR-RES
SN12C = system: SN12C
SF-539 = system: SF-539
RPMI-8226 = system: RPMI-8226
SF-295 = system: SF-295
COLO 205 = system: COLO 205
NCI-H460 = system: NCI-H460
OVCAR-8 = system: OVCAR-8
M14 = system: M14
NCI-H226 = system: NCI-H226
A498 = system: A498
SK-OV-3 = system: SK-OV-3
A549 = system: A549
SW-620 = system: SW-620
MOLT-4 = system: MOLT-4
KM12 = system: KM12
K562 = system: K562
Hs-578T = system: Hs-578T
HT-29 = system: HT-29
786-0 = system: 786-0

Measured: GI50

N#Cc1cc(-c2nc3ccc(F)cc3s2)ccc1N
inactive: NCI/ADR-RES > 100 µM | SN12C > 100 µM | SF-539 51.1 µM | RPMI-8226 > 100 µM | SF-295 > 100 µM | COLO 205 28.9 µM | NCI-H460 > 100 µM | OVCAR-8 > 100 µM | M14 > 100 µM | NCI-H226 > 100 µM | A498 > 100 µM | SK-OV-3 21.8 µM | A549 > 100 µM | SW-620 > 100 µM | MOLT-4 > 100 µM | KM12 > 100 µM | K562 80.4 µM | Hs-578T > 100 µM | HT-29 > 100 µM | 786-0 > 100 µM

COc1c(OC)c(OC)c2c(=O)cc(-c3ccc(OC(C)C)cc3)oc2c1OC
inactive: NCI/ADR-RES 17.5 µM | SN12C > 38.9 µM | SF-539 19.7 µM | RPMI-8226 3.75 µM | SF-295 29.4 µM | COLO 205 21.4 µM | NCI-H460 27.4 µM | OVCAR-8 14.7 µM | M14 19.1 µM | NCI-H226 15.1 µM | A498 8.3 µM | SK-OV-3 > 35.7 µM | A549 24.2 µM | SW-620 > 44 µM | MOLT-4 3.87 µM | KM12 30.9 µM | K562 5.25 µM | Hs-578T 23.1 µM | HT-29 8.32 µM | 786-0 > 34.1 µM

O=C(O)CCSC(=S)Nc1ccc([N+](=O)[O-])cc1
inactive: NCI/ADR-RES 40.8 µM | SN12C > 74 µM | SF-539 39.5 µM | RPMI-8226 27.3 µM | SF-295 40.5 µM | COLO 205 97.9 µM | NCI-H460 > 82.6 µM | OVCAR-8 36.6 µM | M14 > 85.9 µM | NCI-H226 > 75.2 µM | A498 > 70.3 µM | SK-OV-3 > 100 µM | A549 > 83.2 µM | SW-620 > 70.1 µM | MOLT-4 8.38 µM | KM12 > 80.2 µM | K562 27.2 µM | Hs-578T > 100 µM | HT-29 > 94 µM | 786-0 > 100 µM

CC(C)(C)c1cc[n+](C[n+]2ccc(C(C)(C)C)cc2)cc1
inactive: NCI/ADR-RES > 100 µM | SN12C > 100 µM | SF-539 > 100 µM | RPMI-8226 > 100 µM | SF-295 > 100 µM | COLO 205 > 100 µM | NCI-H460 > 100 µM | OVCAR-8 > 100 µM | M14 > 100 µM | NCI-H226 > 100 µM | A498 53.6 µM | SK-OV-3 > 100 µM | A549 > 100 µM | SW-620 > 100 µM | MOLT-4 > 100 µM | KM12 > 100 µM | K562 > 100 µM | Hs-578T > 100 µM | HT-29 > 100 µM | 786-0 > 100 µM

O=C(NNC(=O)c1ccccc1O)c1cccs1
inactive: NCI/ADR-RES 27.8 µM | SN12C > 100 µM | SF-539 > 100 µM | RPMI-8226 > 100 µM | SF-295 34.2 µM | COLO 205 46.5 µM | NCI-H460 56.9 µM | OVCAR-8 32.1 µM | M14 35.5 µM | NCI-H226 5.79 µM | A498 > 100 µM | SK-OV-3 24.4 µM | A549 54.1 µM | SW-620 61.5 µM | MOLT-4 54.7 µM | KM12 39.4 µM | K562 > 100 µM | Hs-578T > 100 µM | HT-29 33.3 µM | 786-0 > 100 µM

NC(CC(=O)Nc1cc(C(F)(F)F)ccc1Cl)=NO
inactive: NCI/ADR-RES > 100 µM | SN12C > 100 µM | SF-539 > 100 µM | RPMI-8226 > 100 µM | SF-295 > 100 µM | COLO 205 > 100 µM | NCI-H460 > 100 µM | OVCAR-8 > 100 µM | M14 > 100 µM | NCI-H226 > 100 µM | A498 > 100 µM | SK-OV-3 > 100 µM | A549 > 100 µM | SW-620 > 100 µM | MOLT-4 > 100 µM | KM12 > 100 µM | K562 > 100 µM | Hs-578T > 100 µM | HT-29 > 100 µM | 786-0 > 100 µM

NC(=O)NC1C(c2ccccc2)=C1c1ccccc1
inactive: NCI/ADR-RES 10.5 µM | SN12C 13.6 µM | SF-539 15.4 µM | RPMI-8226 7.21 µM | SF-295 17.6 µM | COLO 205 13 µM | NCI-H460 15.5 µM | OVCAR-8 12.5 µM | M14 19.1 µM | NCI-H226 5.08 µM | A498 15 µM | SK-OV-3 15.6 µM | A549 27.4 µM | SW-620 13.7 µM | MOLT-4 4.88 µM | KM12 19.2 µM | K562 15.4 µM | Hs-578T 27.6 µM | HT-29 21.7 µM | 786-0 22.4 µM
